How the values were obtained:
AVM-NKT cells = assay: Flow cytometry of osteoarthritis patients treated with dexamethasone; assay type: in vivo, human; settings: 3-6 mg/kg; 48 hours post treatment; one of four patients
[1] = test system: human CD3high, CD45dim, CD56+ cells; assay: Human AVM-NKT cells in HuCD34-NCG mice; assay type: in vivo, mouse; settings: oral HED 18-45 mg/kg; 24-48 hours later
Source text: The HuCD34-NCG mouse from Charles River is a study-ready mouse model with a human-like immune system, created by adoptive transfer of CD34+ stem cells. HuCD34-NCG mice are an ideal in vivo platform to evaluate the effectiveness of compounds modulating the human immune system. The lack, or late onset, of graft-versus-host disease (GvHD) in humanized mice make them ideal for long-term studies.
NCG mice are humanized by adoptive transfer using human umbilical cord blood-derived CD34+ stem cells, following myeloablation treatment. NCG mice from 4 donors (n=2 per donor) are orally dosed with HED 18-45 mg/kg DSP. 24-48 hours later human CD3high, and/or human CD45dim, and/or human CD56+ cells can be observed to be about 0.2-3% of total splenocytes by flow cytometry.

[2] = test system: CD3high, CD45dim, CD49b+ cells; assay: Venetoclax pre-treatment before high dose DSP in female NOD mice; assay type: in vivo, mouse; settings: 48 hours after HED 30 mg/kg DSP alone
Experimental: Female NOD mice of 10 weeks of age are treated with 12.5 mg/kg up to 50 mg/kg venetoclax 6-18 hours before oral gavage of a HED 30 mg/kg DSP dose. […] CD3high, CD45dim, CD49b+ cells are reduced from—70 cells/microliter with DSP alone to—40 cells/microliter with 12.5 mg/kg venetoclax pretreatment, to—20 cells/microliter with 25 mg/kg venetoclax pretreatment, to—15 cells/microliter with 50 mg/kg venetoclax pretreatment. Venetoclax is a Bcl-2 inhibitor.

[3] = test system: human CD3high, CD45dim, CD56+ cells; assay: Human AVM-NKT cells in BRGSF humanized mice; assay type: in vivo, mouse; settings: oral HED 18-45 mg/kg; 24-48 hours later
Experimental: BRGSF humanized mice on a Balb/c background from Genoway generated by transplanting human umbilical cord blood CD34+ stem cells into irradiated mice that lack mouse B and T lymphocytes and NK cells but have a functional mouse complement system are orally dosed with HED 18-45 mg/kg DSP. 24-48 hours later human CD3high, and/or human CD45dim, and/or human CD56+ cells can be observed to be about 0.2-3% of total splenocytes by flow cytometry.

[4] = test system: human CD3high, CD45dim, CD56+ cells; assay: Human AVM-NKT cells in huNOG EXL mice; assay type: in vivo, mouse; settings: oral HED 18-45 mg/kg; 24-48 hours later
Experimental: huNOG EXL from Taconic have an average of 54% of CD45 cells positive for human CD45. Six huNOG EXL humanized immune system mice from 3 donors (n=2 per donor) are orally dosed with HED 18-45 mg/kg DSP. 24-48 hours later human CD3high, and/or human CD45dim, and/or human CD56+ cells can be observed to be about 0.2-3% of total splenocytes by flow cytometry.

dexamethasone sodium phosphate [DSP]
Cells corresponding to AVM-NKT cells (CD45 dim, CD56 very bright) in blood (AVM-NKT cells): identified | human CD3high, and/or CD45dim, and/or CD56+ cells as share of total splenocytes [1]: 0.2-3% | CD3high, CD45dim, CD49b+ cells mobilized into the blood [2]: 70 cells/microliter | human CD3high, and/or CD45dim, and/or CD56+ cells as share of total splenocytes [3]: 0.2-3% | human CD3high, and/or CD45dim, and/or CD56+ cells as share of total splenocytes [4]: 0.2-3%

— patent US20230096897A1, “Lymphocyte Population and Methods for Producing Same” (AVM Biotechnology, LLC, priority 2020, published 2023)
